# Data reported in patent publication US12428406B2 (PMV Pharmaceuticals, Inc., priority 2019, dated 2025).
# Molecular target: T1, p53 Y220C (Homo sapiens, UniProt P04637, Y220C)
# T1 construct: The recombinant protein was a truncation mutant containing only amino acids 94-312 of p53; made in house; host or cells: E. coli
# Test: In vitro DNA binding activity assay (HTRF / TR-FRET): stabilization of p53 Y220C and increase of its DNA binding activity
# Assay type: biochemical
# Settings: recombinant His-tagged p53 Y220C DNA binding domain (aa 94-312), biotin-labeled consensus DNA, incubated at 27° C. or 29° C. for 60 min
# Method in brief: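 His-tagged p53 Y220C, E. coli-expressed, binding biotin-labeled consensus DNA measured by HTRF (anti-His-APC, streptavidin-europium). Compounds from 4.5 mM DMSO stocks, 3-fold serial dilutions; incubations at room temperature 15 min, then 20 min. SC150 = concentration raising DNA binding by 50%.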
# T1 sequence (P04637 94-312, change not shown): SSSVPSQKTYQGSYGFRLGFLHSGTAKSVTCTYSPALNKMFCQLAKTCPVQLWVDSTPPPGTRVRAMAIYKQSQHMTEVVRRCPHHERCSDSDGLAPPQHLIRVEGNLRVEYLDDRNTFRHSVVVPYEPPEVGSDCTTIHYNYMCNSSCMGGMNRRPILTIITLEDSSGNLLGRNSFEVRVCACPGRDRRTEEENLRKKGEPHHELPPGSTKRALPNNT
row,Compound,SC150 (concentration of the compound required to increase the DNA binding activity by 50%)
1,"COCC(O)CN1CCC(Nc2cccc3c2cc(C#CCNc2ccc(S(C)(=O)=O)cc2)n3CC(F)(F)F)CC1 (centres unmarked) [Compound 672A, 1-{4-[(2-{3-[(4-methanesulfonylphenyl)amino]prop-1-yn-1-yl}-1-(2,2,2-trifluoroethyl)-1H-indol-4-yl)amino]piperidin-1-yl}-3-methoxypropan-2-ol]",+ (+ = 0 μM ≤ SC150 < 0.05 μM)
2,"COc1cc(-c2cccnc2)ccc1NCC#Cc1cc2c(NC3CCN(C)CC3)cccc2n1CC(F)(F)F [Compound 503A, 2-(3-{[2-methoxy-4-(pyridin-3-yl)phenyl]amino}prop-1-yn-1-yl)-N-(1-methylpiperidin-4-yl)-1-(2,2,2-trifluoroethyl)-1H-indol-4-amine]",++ (++ = 0.05 μM ≤ SC150 < 0.1 μM)
3,"CNC(=O)c1cc(OC)c(NCC#Cc2cc3c(N[C@@H]4CCN(C)C[C@@H]4F)cccc3n2CC(F)(F)F)cn1 [Compound 1065A, 5-{[3-(4-{[(3S,4R)-3-fluoro-1-methylpiperidin-4-yl]amino}-1-(2,2,2-trifluoroethyl)-1H-indol-2-yl)prop-2-yn-1-yl]amino}-4-methoxy-N-methylpyridine-2-carboxamide]",+ (+ = 0 μM ≤ SC150 < 0.05 μM)
4,CCN1CC[C@H](Nc2cccc3c2cc(C#CCNc2ccc(S(C)(=O)=O)cc2OC)n3CC(F)(F)F)[C@H](F)C1 [Compound 813A],+ (+ = 0 μM ≤ SC150 < 0.05 μM)
5,"COc1cc(C(=O)NCC(COC(C)=O)OC(C)=O)ccc1NCC#Cc1cc2c(N[C@@H]3CCN(C)C[C@@H]3F)cccc2n1CC(F)(F)F (stereo partly drawn) [Compound 970A, 1-(acetyloxy)-3-[(4-{[3-(4-{[(3S,4R)-3-fluoro-1-methylpiperidin-4-yl]amino}-1-(2,2,2-trifluoroethyl)-1H-indol-2-yl)prop-2-yn-1-yl]amino}-3-methoxyphenyl)formamido]propan-2-yl acetate]",+ (+ = 0 μM ≤ SC150 < 0.05 μM)
6,"COc1cc(S(N)(=O)=O)ccc1NCC#Cc1cc2c(NC3CCN(C)CC3)cc(F)cc2n1CC(F)(F)F [Compound 474A, 4-[(3-{6-fluoro-4-[(1-methylpiperidin-4-yl)amino]-1-(2,2,2-trifluoroethyl)-1H-indol-2-yl}prop-2-yn-1-yl)amino]-3-methoxybenzene-1-sulfonamide]",+ (+ = 0 μM ≤ SC150 < 0.05 μM)
7,"COc1cc(Cl)ccc1NCC#Cc1cc2c(N[C@H]3CC[C@H](N4CC5(COC5)C4)CC3)cccc2n1CC(F)(F)F [Compound 265A, N-((1R,4R)-4-(2-oxa-6-azaspiro[3.3]heptan-6-yl)cyclohexyl)-2-(3-((4-chloro-2-methoxyphenyl)amino)prop-1-yn-1-yl)-1-(2,2,2-trifluoroethyl)-1H-indol-4-amine]",+ (+ = 0 μM ≤ SC150 < 0.05 μM)
8,"COCCOc1cc(S(C)(=O)=O)ccc1NCC#Cc1cc2c(N[C@H]3CC[C@@H](N4CC5(COC5)C4)CC3)cccc2n1CC(F)(F)F [Compound 221A, 2-(3-{[4-methane-sulfonyl-2-(2-methoxyethoxy)phenyl]amino}prop-1-yn-1-yl)-N-[(1S,4S)-4-{2-oxa-6-azaspiro[3.3]heptan-6-yl}cyclohexyl]-1-(2,2,2-trifluoroethyl)-1H-indol-4-amine]",+ (+ = 0 μM ≤ SC150 < 0.05 μM)
9,"CCNC(=O)c1ccc(NCC#Cc2cc3c(N[C@H]4CC[C@H](N5CC6CC(C5)O6)CC4)cccc3n2CC(F)(F)F)c(OC)c1 [Compound 406A, N-ethyl-3-methoxy-4-{[3-(4-{[(1R,4R)-4-{6-oxa-3-azabicyclo[3.1.1]heptan-3-yl}cyclohexyl]amino}-1-(2,2,2-trifluoroethyl)-1H-indol-2-yl)prop-2-yn-1-yl]amino}benzamide]",+ (+ = 0 μM ≤ SC150 < 0.05 μM)
10,COCC(O)CNC(=O)c1ccc(NCC#Cc2cc3c(N[C@@H]4CCN(C)C[C@@H]4F)cccc3n2CC(F)(F)F)c(OC)c1 (some centres unmarked) [Compound 960A],+ (+ = 0 μM ≤ SC150 < 0.05 μM)
11,"COc1cc(C(C)(C)C#N)ccc1NCC#Cc1cc2c(NC3CCC(N4CC5(COC5)C4)CC3)cccc2n1CC(F)(F)F [Compound 251A, 2-(3-methoxy-4-{[3-(4-{[(1R,4R)-4-{2-oxa-6-azaspiro[3.3]heptan-6-yl}cyclohexyl]amino}-1-(2,2,2-trifluoroethyl)-1H-indol-2-yl)prop-2-yn-1-yl]amino}phenyl)-2-methylpropanenitrile]",+ (+ = 0 μM ≤ SC150 < 0.05 μM)
12,"COc1cc(C(=O)O)ccc1NCC#Cc1cc2c(N[C@@H]3CCN(C(C)C)C[C@@H]3F)cccc2n1CC(F)(F)F [Compound 809A, 4-{[3-(4-{[(3S,4R)-3-fluoro-1-(propan-2-yl)piperidin-4-yl]amino}-1-(2,2,2-trifluoroethyl)-1H-indol-2-yl)prop-2-yn-1-yl]amino}-3-methoxybenzoic acid]",+ (+ = 0 μM ≤ SC150 < 0.05 μM)
13,"COc1cc(S(C)(=O)=O)ccc1NCC#Cc1cc2c(N[C@H]3CC[C@H](N4CCC(C(F)(F)F)CC4)CC3)cccc2n1CC(F)(F)F [Compound 436A, 2-{3-[(4-methane-sulfonyl-2-methoxy-phenyl)amino]prop-1-yn-1-yl}-N-[(1R,4R)-4-[4-(trifluoromethyl)piperidin-1-yl]cyclohexyl]-1-(2,2,2-trifluoroethyl)-1H-indol-4-amine]",+ (+ = 0 μM ≤ SC150 < 0.05 μM)
14,"COCC(O)CN1CCC(Nc2cccc3c2cc(C#CCNc2ccc(S(N)(=O)=O)cc2O)n3CC(F)(F)F)CC1 (centres unmarked) [Compound 634A, 3-hydroxy-4-{[3-(4-{[1-(2-hydroxy-3-methoxypropyl)piperidin-4-yl]amino}-1-(2,2,2-trifluoroethyl)-1H-indol-2-yl)prop-2-yn-1-yl]amino}benzene-1-sulfonamide]",+ (+ = 0 μM ≤ SC150 < 0.05 μM)
15,"COCCN(C)[C@H]1CC[C@@H](Nc2cccc3c2cc(C#CCNc2ccc(S(N)(=O)=O)cc2OCC#N)n3CC(F)(F)F)CC1 [Compound 165A, 3-(cyanomethoxy)-4-{[3-(4-{[(1S,4S)-4-[(2-methoxyethyl)(methyl)amino]cyclohexyl]amino}-1-(2,2,2-trifluoroethyl)-1H-indol-2-yl)prop-2-yn-1-yl]amino}benzene-1-sulfonamide]",+ (+ = 0 μM ≤ SC150 < 0.05 μM)
16,"CNC(=O)c1ccc(NCC#Cc2cc3c(N[C@H]4CC[C@@H](N(C)CCOC)CC4)cccc3n2CC(F)(F)F)c(OC)c1 [Compound 152A, 3-methoxy-N-methyl-4-{[3-(4-{[(1S,4S)-4-[(2-methoxyethyl) (methyl)amino]cyclohexyl]amino}-1-(2,2,2-trifluoroethyl)-1H-indol-2-yl)prop-2-yn-1-yl]amino}benzamide]",+ (+ = 0 μM ≤ SC150 < 0.05 μM)
17,"COc1cc(S(C)(=O)=O)ccc1NCC#Cc1cc2c(NC3CCCC(C(=O)O)C3)cccc2n1CC(F)(F)F (centres unmarked) [Compound 36A, 3-[(2-{3-[(4-methane-sulfonyl-2-methoxy-phenyl)amino]prop-1-yn-1-yl}-1-(2,2,2-trifluoroethyl)-1H-indol-4-yl)amino] cyclohexane-1-carboxylic acid]",+++ (+++ = 0.1 μM ≤ SC150 < 0.2 μM)
18,"CNC(=O)c1ccc(NCC#Cc2cc3c(NC4CCN(C[C@H](O)COC)CC4)cccc3n2CC(F)(F)F)c(OC)c1 [Compound 648A, 4-({3-[4-({1-[(2S)-2-hydroxy-3-methoxypropyl]piperidin-4-yl}amino)-1-(2,2,2-trifluoroethyl)-1H-indol-2-yl]prop-2-yn-1-yl}amino)-3-methoxy-N-methylbenzamide]",+ (+ = 0 μM ≤ SC150 < 0.05 μM)
19,"CNC(=O)c1cc(OC)c(NCC#Cc2cc3c(N[C@H]4CC[C@H](N5CC6(CCOCC6)C5)CC4)cccc3n2CC(F)(F)F)cc1F [Compound 335A, 2-fluoro-5-methoxy-N-methyl-4-{[3-(4-{[(1R,4R)-4-{7-oxa-2-azaspiro[3.5]nonan-2-yl}cyclohexyl]amino}-1-(2,2,2-trifluoroethyl)-1H-indol-2-yl)prop-2-yn-1-yl]amino}benzamide]",+ (+ = 0 μM ≤ SC150 < 0.05 μM)
20,"COCCN(C)[C@H]1CC[C@H](Nc2cccc3c2cc(C#CCNc2ccc(S(C)(=O)=O)cc2OC)n3CC(F)(F)F)CC1 [Compound 57A, (1R,4R)-N^4-(2-{3-[(4-methanesulfonyl-2-methoxyphenyl)amino]prop-1-yn-1-yl}-1-(2,2,2-trifluoro-ethyl)-1H-indol-4-yl)-N^1-(2-methoxyethyl)-N^1-methylcyclohexane-1,4-diamine]",+ (+ = 0 μM ≤ SC150 < 0.05 μM)
21,"CNC(=O)c1ccc(NCC#Cc2cc3c(N[C@H]4CC[C@H](N5CCC(OC)CC5)CC4)cccc3n2CC(F)(F)F)c(OC)c1 [Compound 352A, 3-methoxy-N-methyl-4-{[3-(4-{[(1R,4R)-4-(4-methoxypiperidin-1-yl)cyclohexyl]amino}-1-(2,2,2-trifluoroethyl)-1H-indol-2-yl)prop-2-yn-1-yl]amino}benzamide]",+ (+ = 0 μM ≤ SC150 < 0.05 μM)
22,"CCCn1c(C#CCNc2ccc(S(C)(=O)=O)cc2OC)cc2c(NC3CCN(CC(O)COC)CC3)cccc21 (centres unmarked) [Compound 697A, 1-{4-[(2-{3-[(4-methanesulfonyl-2-methoxyphenyl)amino]prop-1-yn-1-yl}-1-propyl-1H-indol-4-yl)amino]piperidin-1-yl}-3-methoxypropan-2-ol]",+ (+ = 0 μM ≤ SC150 < 0.05 μM)
23,CC(C)N1CCC(Nc2cccc3c2cc(C#CCNc2ccc(S(C)(=O)=O)cc2OCC#N)n3CC(F)(F)F)CC1 [Compound 540A],+ (+ = 0 μM ≤ SC150 < 0.05 μM)
